From patent publication US20090324701A1, “COMPOSITIONS CONTAINING (S)-BETHANECHOL AND THEIR USE IN THE TREATMENT OF INSULIN RESISTANCE, TYPE 2 DIABETES, GLUCOSE INTOLERANCE AND RELATED DISORDERS” (DIAMEDICA, INC., priority 2006, published 2009)

Experiments:
muscarinic M1 receptors = molecular target: T1, muscarinic M1 receptors (Homo sapiens, UniProt P11229); assay: Radioligand binding muscarinic M1 binding assay; conditions: for competition with [3H] N-methylscopolamine for binding to muscarinic M1 receptors: in words, refers to Table 1
T1 sequence (P11229 1-460): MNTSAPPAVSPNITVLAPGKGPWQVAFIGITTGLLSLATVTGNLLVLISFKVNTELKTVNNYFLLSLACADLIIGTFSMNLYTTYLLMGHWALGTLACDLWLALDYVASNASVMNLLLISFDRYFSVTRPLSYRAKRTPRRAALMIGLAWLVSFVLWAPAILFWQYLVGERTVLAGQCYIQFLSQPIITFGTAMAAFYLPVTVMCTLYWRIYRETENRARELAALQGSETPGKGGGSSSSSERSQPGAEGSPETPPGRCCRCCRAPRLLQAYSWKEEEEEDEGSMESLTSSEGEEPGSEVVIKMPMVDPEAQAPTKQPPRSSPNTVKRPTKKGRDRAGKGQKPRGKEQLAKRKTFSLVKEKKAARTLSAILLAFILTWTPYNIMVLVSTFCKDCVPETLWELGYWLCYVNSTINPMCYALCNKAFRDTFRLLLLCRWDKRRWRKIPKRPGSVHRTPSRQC
Experimental: (§1) The binding assay methodology was an adaptation of the methodology set out in Buckley N J, Bonner T I, Buckley C M and Brann M R (1989), Antagonist binding properties of five cloned muscarinic receptors expressed in CHO-K1 cells. Mol Pharmacol. 35(4): 469-476 and Luthin G R and Wolfe B B (1984), Comparison of [^3H]pirenzepine and [^3H]quinuclidinylbenzilate binding to muscarine cholinergic receptors in rat brain. J Pharmacol Exp Ther. 228(3):648-655.
(§2) The binding assay was performed under the following conditions:
(§3) Source: human recombinant CHO cells
(§4) Ligand: 0.8 nM [^3H] N-Methylscopolamine
(§5) Incubation Time/Temp: 2 hours at 25° C.
(§6) Incubation Buffer: 50 mM Tris-HCl, pH 7.4, 10 mM MgCl2, 1 mM EDTA
(§7) Non-specific Ligand: 1 μM Atropine
(§8) Quantification Method: radioligand binding Significance Criteria: ≧50% of max stimulation of inhibition

[1] = system: rats with denervation induced HDIR; assay: RIST, reversal of HISS dependent insulin resistance caused by anterior hepatic plexus denervation (Example 8); type: in vivo, male Spraque Dawely rats; conditions: for potentiation for reversing denervation induced HDIR: dose not stated (FIG. 1); for reversal of denervation induced HDIR: in words (FIG. 1); for % Potentiation: potentiation of denervated RIST index
Experimental: The test subjects were male Spraque Dawely rats (supplied by Charles River or The University of Manitoba) weighing between 222.0 to 375 g. The rats were separated into three test groups: For each test group, the rats were fasted for an 8 hour period and then re-fed for a 2 hour period. The rats were anesthetized with pentobarbital sodium (65 mg/kg) and were prepared surgically according to the standard animal preparation used to conduct a control RIST test (Lautt et al., 1998). After surgery the rat stabilizes for 30 minutes. Following the stabilization period and establishment of a baseline, a control RIST was carried out to show the amount of glucose needed to maintain euglycemia after a bolus administration of insulin (50 mU/kg i.v.). The animal underwent surgery to cause insulin resistance. Anterior plexus denervation and portal puncture was performed. After an hour of recovery time a post-denervation RIST was carried out. The inclusion criteria is a RIST index≧250 mg glucose/kg≦140 mg glucose/kg. For each test group, the test compound was administered at various doses μg/kg intraportal venous (0.5 mL bolus, rate of 0.05 mL/min plus 0.03 mL dead-space volume). Following administration of the test compound, a post-administration RIST was carried out and the potentiation calculated as follows: [(Reversal RIST Index−Blocked RIST Index)/Blocked RIST Index]×(100%)=% Potentiation. […] Each test group was repeated using various doses of each test compound to establish a dose-response curve. The doses were determined based upon initial findings.

muscarinic M3 receptors = molecular target: T2, muscarinic M3 receptors (Homo sapiens, UniProt P20309); assay: Radioligand binding muscarinic M3 binding assay; conditions: for competition with [3H] N-methylscopolamine for binding to muscarinic M3 receptors: in words, refers to Table 2
T2 construct: expressed in transfected cells; host or cells: CHO cells
Experimental: as §1, §2, §3, §4, §5, §6, §7
Bmax: 534 pmol/mg protein
as §8

[2] = system: rats with insulin resistance produced by hepatic denervation; assay: RIST, insulin sensitivity in rats with insulin resistance produced by hepatic denervation (Examples 5-7); type: in vivo, male Spraque Dawely rats; conditions: total dose into the portal vein 0.001 to 0.1 μg/kg beginning 10 minutes prior to insulin (50 mU/kg i.v.); present-tense example
Experimental: The test subjects are male Spraque Dawely rats. The male rat is fasted for an 8 hour period and then re-fed for a 2 hour period. The rat is anesthetized with pentobarbital sodium (65 mg/kg) and is prepared surgically according to the standard animal preparation used to conduct a RIST test (Lautt et al., 1998). After surgery the rat stabilizes for 30 minutes.
Following the stabilization period and establishment of a baseline, a control RIST is carried out to show the amount of glucose needed to maintain euglycemia after a bolus administration of insulin (50 mU/kg i.v.).
The animal undergoes surgery to cause insulin resistance. Surgical denervation of hepatic nerves reaching the liver along the hepatic artery is done. After an hour of recovery time a RIST is then carried out.
Racemic bethanechol is administered to the rat that has been surgically denervated with a total dose into the portal vein of (0.001 to 0.1) μg/kg beginning 10 minutes prior to the insulin administration.
(R)-bethanechol is administered to the rat that has been surgically denervated with a total dose into the portal vein of (0.001 to 0.1) μg/kg beginning 10 minutes prior to the insulin administration.
(S)-bethanechol is administered to the rat that has been surgically denervated with a total dose into the portal vein of (0.001 to 0.1) μg/kg beginning 10 minutes prior to the insulin administration.

[3] = system: hepatic glutathione (GSH); assay: Hepatic glutathione levels in denervated rats (Bioxytech GSH420 kit); type: in vivo; conditions: compared to animals treated with (R)-bethanechol or racemic bethanechol; present-tense example
Experimental: Hepatic glutathione (GSH) levels are determined for test animals from Example 8 which have a control RIST of ≧170 mg glucose/kg≦250 mg glucose mg/kg.
Following the post-denervation RIST analysis, a liver sample is taken from each test animal using cork borer #4 or #5 to remove a section of liver from the left lateral liver lobe. The top and bottom (1-2 mm) of the sample are trimmed and cut into 2 equal pieces. The samples are flash frozen on dry ice in tin foil, and are labeled with the experiment number and date. The samples are stored at −80 until GSH analysis is performed. Liver GSH levels are determined using the Bioxytech GSH420 kit.

[4] = compound 100 μm, 0.8 nM [3H] N-Methylscopolamine, human recombinant CHO cells
[5] = as compared to R-bethanechol and racemic bethanechol

T2 sequence (P20309 whole entry): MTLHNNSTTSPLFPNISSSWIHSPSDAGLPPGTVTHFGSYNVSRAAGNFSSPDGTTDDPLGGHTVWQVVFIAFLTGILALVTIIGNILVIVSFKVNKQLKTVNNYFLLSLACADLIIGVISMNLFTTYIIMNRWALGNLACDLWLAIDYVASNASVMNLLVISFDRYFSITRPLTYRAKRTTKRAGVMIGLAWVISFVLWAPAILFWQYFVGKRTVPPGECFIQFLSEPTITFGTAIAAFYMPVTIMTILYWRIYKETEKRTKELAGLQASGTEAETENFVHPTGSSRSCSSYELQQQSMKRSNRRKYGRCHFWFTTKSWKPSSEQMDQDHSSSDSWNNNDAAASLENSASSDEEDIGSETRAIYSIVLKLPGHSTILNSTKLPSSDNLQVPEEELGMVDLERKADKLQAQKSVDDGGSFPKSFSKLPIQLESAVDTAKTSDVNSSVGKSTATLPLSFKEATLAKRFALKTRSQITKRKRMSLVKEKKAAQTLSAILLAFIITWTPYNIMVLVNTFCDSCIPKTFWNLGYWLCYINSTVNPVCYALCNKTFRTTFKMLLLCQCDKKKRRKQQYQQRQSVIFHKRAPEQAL

## CC(C[N+](C)(C)C)OC(N)=O (racemic) [racemic bethanechol, bethanechol]
Muscarinic M1 receptors; [4]
  inhibition at 100 µM: -4%
Muscarinic M1 receptors
  competition with [3H] N-methylscopolamine for binding to muscarinic M1 receptors: did not compete
[1]
  potentiation for reversing denervation induced HDIR: ca. 52%
  reversal of denervation induced HDIR: substantial reversal
Muscarinic M3 receptors; [4]
  inhibition at 100 µM: -5%
Muscarinic M3 receptors
  competition with [3H] N-methylscopolamine for binding to muscarinic M3 receptors: did not compete
[2]
  RIST index: restoration of insulin sensitivity: restores insulin sensitivity

## C[C@@H](C[N+](C)(C)C)OC(N)=O.[Cl-] [(S)-bethanechol, (S)-(+)-2-Carbamyloxy-1-(N,N,N-trimethyl)-propylammonium chloride]
[3]
  increases in hepatic GSH levels: greater increases in hepatic GSH levels
Muscarinic M1 receptors; [5]
  binding affinity for muscarinic M1 receptors: significantly higher
Muscarinic M1 receptors; [4]
  % Inhibition: 31%
[1]; dose 0.005 μg/kg intraportal venous
  % Potentiation: −1.81%
[1]; dose 0.010 μg/kg intraportal venous
  % Potentiation: −13.01%
[1]; dose 0.025 μg/kg intraportal venous
  % Potentiation: 12.24%
[1]; dose 0.050 μg/kg intraportal venous
  % Potentiation: 34.66%
[1]; dose 0.100 μg/kg intraportal venous
  % Potentiation: 48.29%
[1]; dose 0.250 μg/kg intraportal venous
  % Potentiation: 58.16%
[1]; dose 0.500 μg/kg intraportal venous
  % Potentiation: 71.19%
[1]; dose 0.750 μg/kg intraportal venous
  % Potentiation: 69.08%
[1]; dose 2.000 μg/kg intraportal venous
  % Potentiation: 57.21%
[1]; dose 5.000 μg/kg intraportal venous
  % Potentiation: 40.27%
[1]
  potentiation for reversing denervation induced HDIR: ca. 72%
  reversal of denervation induced HDIR: substantial reversal
[1]; doses ranging between 0.025 to 5.000 μg/kg, 0.250 to 2.000 μg/kg greatest % potentiation
  reversal of denervation-induced HDIR over dose range: reversed denervation-induced HDIR
Muscarinic M3 receptors; [5]
  binding affinity for muscarinic M3 receptors: significantly higher
Muscarinic M3 receptors; [4]
  % Inhibition: 42%
[2]
  RIST index: restoration of insulin sensitivity: restores insulin sensitivity better than racemic bethanecol

## C[C@H](C[N+](C)(C)C)OC(N)=O.[Cl-] [(R)-bethanechol, (R)-(−)-2-Carbamyloxy-1-(N,N,N-trimethyl)-propylammonium chloride]
Muscarinic M1 receptors; [4]
  % Inhibition: 0%
Muscarinic M1 receptors
  competition with [3H] N-methylscopolamine for binding to muscarinic M1 receptors: did not compete
[1]
  reversal of denervation induced HDIR: no significant reversal
Muscarinic M3 receptors; [4]
  % Inhibition: −11%
Muscarinic M3 receptors
  competition with [3H] N-methylscopolamine for binding to muscarinic M3 receptors: did not compete
[2]
  RIST index: restoration of insulin sensitivity: does not significantly restore insulin sensitivity
